Values joined by “and” are separate entries in the source; they are usually repeats but may differ in a detail not shown here. Identical values can stand only once. Like-named read-outs stand apart in the source and are kept apart here.
How the values were obtained:
Format in all cases: biochemical
Plasmin = target: T1, Plasmin (Homo sapiens, UniProt P00747); assay: Chromogenic assay, plasmin; conditions: Plasmin 1.0 nM; S-2288 500 μM; highest conc. of 1.001 50 μM
T1 construct: purchased Haematologic Technologies (Essex Junction, VT)
Text: (§1) Human Kallikrein Proteins: Recombinant human KLK5 expressed in HEK293 was obtained from SpeedBio (Gaithersburg, MD). Recombinant proenzyme KLK-7 and recombinant proenzyme KLK-14 both expressed in mouse myeloma cells were from R&D Biosystems (Minneapolis, MN). Plasmin and thrombin were from Haematologic Technologies (Essex Junction, VT). Trypsin and Chymotrypsin were bought from Worthington Biochemical Corporation (Lakewood, NJ) and plasma kallikrein was from Prospec (East Brunswick, NJ). Neutrophil Elastase was obtained from Innovative Research (Peary Court, MI). Bovine recombinant enterokinase expressed in E. coli was bought from Sigma (St. Louis, MI). Matriptase expressed in E. coli was obtained from Enzo Life Sciences (Farmingdale, NY). The control inhibitors Nafamostat mesylate was from Sigma (St. Louis, MI) and (2-(2-fluorophenyl)-5,6,7,8-tetrahydro-4H-benzo[4,5]thieno[2,3-d][1,3]oxazin-4-one was from Interbioscreen (Moskow, Russia). […]
(§2) Assays: All assays were performed in 384 well polystyrene plates coated overnight with 0.1% Tween 20 at 4° C. […] The assays were monitored at 37° C. in a multi well plate reader at a wavelength of 405 nm (Molecular Devices, San Jose, CA) for 1 h. […]
(§3) Data analysis: The progress curves of substrate hydrolysis were analyzed by linear regression of the final 20 min of the reaction. […]

Thrombin = target: T2, Thrombin (Homo sapiens, UniProt P00734); assay: Chromogenic assay, thrombin; conditions: Thrombin 0.5 nM; S-2288 500 μM; highest conc. of 1.001 100 μM
T2 construct: purchased Haematologic Technologies (Essex Junction, VT)
Text: as §1, §2, §3

KLK7 = target: T3, KLK7 (Homo sapiens, UniProt P49862); assay: Recombinant KLK7 chromogenic IC50 assay
T3 construct: purchased R&D Biosystems (Minneapolis, MN) / R&Dsystems; host or cells: mouse myeloma cells
Text: (§4) Human Kallikrein Proteins: Recombinant human KLK5 expressed in HEK293 was obtained from SpeedBio (Gaithersburg, MD). Recombinant proenzyme KLK-7 and recombinant proenzyme KLK-14 both expressed in mouse myeloma cells were from R&D Biosystems (Minneapolis, MN). Plasmin and thrombin were from Haematologic Technologies (Essex Junction, VT). Trypsin and Chymotrypsin were bought from Worthington Biochemical Corporation (Lakewood, NJ) and plasma kallikrein was from Prospec (East Brunswick, NJ). Neutrophil Elastase was obtained from Innovative Research (Peary Court, MI). Bovine recombinant enterokinase expressed in E. coli was bought from Sigma (St. Louis, MI). Matriptase expressed in E. coli was obtained from Enzo Life Sciences (Farmingdale, NY). The control inhibitors Nafamostat mesylate was from Sigma (St. Louis, MI) and (2-(2-fluorophenyl)-5,6,7,8-tetrahydro-4H-benzo[4,5]thieno[2,3-d][1,3]oxazin-4-one was from Interbioscreen (Moskow, Russia).
(§5) Substrates: S-2288 (D-Ile-Pro-Arg-pNA), CS-PSA (MeO-Suc-Arg-Pro-Tyr-pNA), S-2266 (H-D-Val-Leu-Arg-pNA) and S-2288 (H-D-Ile-Pro-Arg-pNA) were bought from Diapharma (West Chester, OH). MeOSuccAla-Ala-Pro-Val-pNA was purchased from Sigma (St Louis, MI). The substrates were dissolved in water at 10 mM and were frozen in aliquots at −20° C.
Activation of KLK-7 and KLK-14: 150 μL 8 μM solution of the proenzymes of KLK-7 or KLK-14 in 50 mM Tris, 10 mM CaCl2, 150 mM NaCl, 0.05% (w/v) Brij-35, pH 7.5 were mixed with 150 μL 10 μg/mL bovine enterokinase in the same buffer and incubated for 2 h for KLK-7 and 1 h for KLK-14 at 37° C. After the incubation period, activation was stopped by addition of 6 μL 0.5 M EDTA pH 8.0.
(§6) Assays: All assays were performed in 384 well polystyrene plates coated overnight with 0.1% Tween 20 at 4° C. The plates were then washed twice with 100 μL water and dried. For the determination of IC50 values, the inhibitors were diluted in serial dilutions of 1:3 intervals into pure DMSO at 50 fold of the intended final concentrations in the assays. Usually eight inhibitor dilutions and one DMSO control were prepared. The substrates were diluted into water at 2.2-fold the final concentration in the assay mixture. The wells of the plate were filled with 50 μL of the enzyme diluted in 2× assay buffer (100 mM Tris, 200 mM NaCl, 0.2% PEG, 0.01% Tween, 2 mM EDTA, pH 8.0) at twofold the intended concentration. Then 5 μL DMSO, 2.2 μL inhibitor and 45 μL substrate were added to start the reaction. The assays were monitored at 37° C. in a multi well plate reader at a wavelength of 405 nm (Molecular Devices, San Jose, CA) for 1 h. The tool inhibitor, nafamostat, was used as a control for trypsin, thrombin, KLK-5 and KLK-14 at 10 μM maximal concentration and (2-(2-fluorophenyl)-5,6,7,8-tetrahydro-4H-benzo[4,5]thieno[2,3-d][1,3]oxazin-4-one for KLK-7 at 5 μM.
(§7) The table summarizes assay conditions for the individual enzymes:
(§8) Data analysis: The progress curves of substrate hydrolysis were analyzed by linear regression of the final 20 min of the reaction. Fit of the dose response of the resulting rates to the following equation yielded the IC50:
(§9) [formula] with 1) c: the background rate at the highest inhibitor concentration; 2) d: the rate of the control reaction; 3) IC50: the IC50 of the inhibitor; 4) x: the inhibitor concentration; and 5) b: the slope.
(§10) Proteases: KLK5 (SpeedBioSystems); KLK7 (R&Dsystems) was activated with enterokinase (2 hours, 37° C.) prior to assay; Trypsin (Sigma Aldrich); Chymotrypsin (Sigma Aldrich); Factor Xa (Haematologic Technologies); Plasmin (Haematologic Technologies); KLK14 (R&Dsystems) was activated with enterokinase (1 hour, 37° C.) prior to assay; Thrombin (Haematologic Technologies); Neutrophil Elastase (Athens Research&Technology); and KLK1 (Prospec).

Chymotrypsin = Chymotrypsin (Bos taurus, UniProt P00766); assay: Chromogenic assay, chymotrypsin
Text: as §4, §5
Assays: All assays were performed in 384 well polystyrene plates coated overnight with 0.1% Tween 20 at 4° C. The plates were then washed twice with 100 μL water and dried. For the determination of IC50 values, the inhibitors were diluted in serial dilutions of 1:3 intervals into pure DMSO at 50 fold of the intended final concentrations in the assays. Usually eight inhibitor dilutions and one DMSO control were prepared. The substrates were diluted into water at 2.2-fold the final concentration in the assay mixture. […] The assays were monitored at 37° C. in a multi well plate reader at a wavelength of 405 nm (Molecular Devices, San Jose, CA) for 1 h. […]
as §3

Recombinant human KLK5 = target: T4, Recombinant human KLK5 (Homo sapiens, UniProt Q9Y337); assay: Recombinant KLK5 chromogenic IC50 assay
T4 construct: purchased SpeedBio (Gaithersburg, MD) / SpeedBioSystems; host or cells: HEK293
T4 sequence (Q9Y337 23-293): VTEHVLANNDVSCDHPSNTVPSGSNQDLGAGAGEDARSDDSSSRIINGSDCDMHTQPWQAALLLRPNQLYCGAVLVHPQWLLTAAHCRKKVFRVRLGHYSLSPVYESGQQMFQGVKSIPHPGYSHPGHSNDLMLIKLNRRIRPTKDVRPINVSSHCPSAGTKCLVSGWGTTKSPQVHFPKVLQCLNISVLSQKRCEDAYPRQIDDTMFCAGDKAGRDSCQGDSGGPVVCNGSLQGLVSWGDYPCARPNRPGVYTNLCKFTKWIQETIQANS
Text: as §4, §5, §6, §7, §8, §9, §10

KLK1 = target: T5, KLK1 (Homo sapiens, UniProt P06870); assay: Chromogenic assay, KLK1; conditions: KLK1 10 nM; S-2266 200 μM; highest conc. of 1.001 50 μM
T5 construct: purchased Prospec
Protocol: as §5
as §6, with “The tool inhibitor, nafamostat, was used as a control for trypsin, thrombin, KLK-5 and KLK-14 at 10 μM maximal concentration and (2-(2-fluorophenyl)-5,6,7,8-tetrahydro-4H-benzo[4,5]thieno[2,3-d][1,3]oxazin-4-one for KLK-7 at 5 μM.” left out
as §3

Neutrophil Elastase = target: T6, Neutrophil Elastase (Homo sapiens, UniProt P08246); assay: Chromogenic assay, neutrophil elastase; conditions: Neutrophil Elastase 0.5 nM; Elastase substrate 1 200 μM; highest conc. of 1.001 100 μM
T6 sequence (P08246 30-267): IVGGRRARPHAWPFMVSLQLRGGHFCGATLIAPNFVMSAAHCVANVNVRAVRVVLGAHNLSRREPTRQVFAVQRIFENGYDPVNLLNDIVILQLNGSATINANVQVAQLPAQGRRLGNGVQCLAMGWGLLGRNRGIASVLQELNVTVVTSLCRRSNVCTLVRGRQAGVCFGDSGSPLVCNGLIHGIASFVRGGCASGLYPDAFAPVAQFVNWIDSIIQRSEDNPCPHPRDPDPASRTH
Text: as §1, §2, §3

[1] = Chymotrypsin 0.2 nM, CS-PSA 500 μM, highest conc. of 1.001 50 μM

T1 sequence (P00747 581-810 limits assumed, species assumed): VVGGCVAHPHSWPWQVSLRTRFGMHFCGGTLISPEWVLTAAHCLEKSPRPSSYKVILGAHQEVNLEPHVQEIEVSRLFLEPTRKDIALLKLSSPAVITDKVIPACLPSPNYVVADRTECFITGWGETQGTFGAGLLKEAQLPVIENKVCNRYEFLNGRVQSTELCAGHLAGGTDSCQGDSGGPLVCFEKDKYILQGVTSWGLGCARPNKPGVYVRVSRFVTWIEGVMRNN
T1 sequence (P00747 97-580 partner limits assumed, species assumed): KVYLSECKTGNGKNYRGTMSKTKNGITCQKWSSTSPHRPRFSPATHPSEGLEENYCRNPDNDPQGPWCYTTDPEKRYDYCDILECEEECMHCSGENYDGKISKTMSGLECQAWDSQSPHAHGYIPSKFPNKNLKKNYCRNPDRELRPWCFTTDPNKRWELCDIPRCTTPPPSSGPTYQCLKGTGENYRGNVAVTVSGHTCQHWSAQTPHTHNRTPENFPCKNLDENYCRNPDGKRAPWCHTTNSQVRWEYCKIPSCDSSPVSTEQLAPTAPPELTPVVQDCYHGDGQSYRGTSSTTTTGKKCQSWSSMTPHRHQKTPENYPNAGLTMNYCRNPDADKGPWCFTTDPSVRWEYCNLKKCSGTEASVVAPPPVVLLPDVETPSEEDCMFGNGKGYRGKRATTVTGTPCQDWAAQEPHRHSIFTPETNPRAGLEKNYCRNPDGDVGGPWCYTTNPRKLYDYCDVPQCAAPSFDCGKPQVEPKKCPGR
T3 sequence (P49862 30-253): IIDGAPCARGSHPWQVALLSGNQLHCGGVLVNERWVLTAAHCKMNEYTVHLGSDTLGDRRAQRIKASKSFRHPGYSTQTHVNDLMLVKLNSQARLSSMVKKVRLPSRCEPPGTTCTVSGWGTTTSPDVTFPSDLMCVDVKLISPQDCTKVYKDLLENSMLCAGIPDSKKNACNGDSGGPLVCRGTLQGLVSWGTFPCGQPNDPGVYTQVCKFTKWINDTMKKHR
T5 sequence (P06870 25-262): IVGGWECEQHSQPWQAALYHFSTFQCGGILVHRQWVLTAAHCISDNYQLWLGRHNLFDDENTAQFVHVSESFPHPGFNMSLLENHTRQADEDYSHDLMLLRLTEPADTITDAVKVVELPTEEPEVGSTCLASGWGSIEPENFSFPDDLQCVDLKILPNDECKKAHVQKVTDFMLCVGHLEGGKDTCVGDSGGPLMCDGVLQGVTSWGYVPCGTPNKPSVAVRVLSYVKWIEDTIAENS

IC50 (Plasmin)	IC50 (Thrombin)	IC50 (KLK7; Table 2, assay protocol of Example 3, read-out: Recombinant KLK7 enzyme (IC50))	IC50 (KLK7; Table 3, KLK7 20 nM, CS-PSA 500 μM, highest conc. of 1.001 20 μM, read-out: IC50 (μM), KLK7)	Inhibition of KLK7, conclusion in words (KLK7; conclusion from Table 3)	IC50 (Chymotrypsin; [1])	Inhibition of Chymotrypsin, conclusion in words (Chymotrypsin; conclusion from Table 3)	IC50 (Recombinant human KLK5; Table 2, assay protocol of Example 3, read-out: Recombinant KLK5 enzyme (IC50))	IC50 (Recombinant human KLK5; Table 3, KLK5 10 nM, S-2288 500 μM, highest conc. of 1.001 10 μM, read-out: IC50 (μM), KLK5)	Inhibition of KLK5, conclusion in words (Recombinant human KLK5; conclusion from Table 3)	Structure (SMILES)	IC50 (μM), KLK1 (KLK1)	IC50 (Neutrophil Elastase)	IC50 (μM), Plasmin (Plasmin)	IC50 (μM), Thrombin (Thrombin)	IC50 (μM), KLK7 (KLK7; Table 3, KLK7 20 nM, CS-PSA 500 μM, highest conc. of 1.001 20 μM)	IC50 (μM), Chymotrypsin (Chymotrypsin; [1])	IC50 (μM), KLK5 (Recombinant human KLK5; Table 3, KLK5 10 nM, S-2288 500 μM, highest conc. of 1.001 10 μM)
3.36 µM and 4.2 µM	> 10 µM	0.34 µM	0.647 µM and 0.693 µM	inhibitor	0.249 µM and 0.317 µM	inhibitor	0.21 µM	0.176 µM and 0.188 µM	inhibitor	CS(=O)(=O)c1cc(CO)ccc1-c1nc2cc3c(cc2c(=O)o1)OCCO3 [Compound 1.001, 2-(4-(Hydroxymethyl)-2-(methylsulfonyl)phenyl)-7,8-dihydro-4H-[1,4]dioxino[2′,3′:4,5]benzo[1,2-d][1,3]oxazin-4-one]	No inhibition	> 50 µM					
										CS(=O)(=O)c1cc(CO)ccc1C(=O)Nc1cc2c(cc1C(=O)O)OCCO2 [Compound 408, reference compound]	No inhibition	> 500 µM	No inhibition	No inhibition	No inhibition	No inhibition	No inhibition
